Assay results reported in paper PMC8540642, “Antineoplastic Activity of Rhus trilobata Nutt. (Anacardiaceae) against Ovarian Cancer and Identification of Active Metabolites in This Pathology” (Plants, 2021).
Values after ≈ are worked out from the molar mass of the structure shown. Read-outs that look alike come from different tables or passages of the source.

Key:
[1] = tested on: CACO-2 cells; assay: MTT cell viability, dose-response curves 24 h; assay type: cell-based; conditions: MTT, 24 h; for IC50: read-out: IC50 (half-maximal inhibitory concentration), CACO-2
Experimental: (§1) Cultures (2 × 10^4 cells/well) were seeded with 200 μL of supplemented medium (Sigma®) in 96-well plates (Corning®, Corning, NY, USA) and incubated for 24 h. Cell treatments were 5-200 μg/mL of samples/controls for 24 h. At the end of the treatments, we added MTT (5 mg/mL, Sigma®) for 4 h of incubation, and optical density was measured at λ = 590 nm in a VariosKan® Flash (Thermo-Scientific®, Waltham, MA, USA). The half-maximal inhibitory concentration (IC50) was determined.

[2] = tested on: CHO-K1 cells; assay: MTT cell viability, dose-response curves 24 h; assay type: cell-based; conditions: MTT, 24 h; for IC50: read-out: IC50 (half-maximal inhibitory concentration), CHO-K1
Experimental: as §1

[3] = tested on: OVCAR-3 cells; assay: MTT cell viability, dose-response curves 24 h; assay type: cell-based; conditions: MTT, 24 h; for IC50: read-out: IC50 (half-maximal inhibitory concentration), OVCAR-3
Experimental: as §1

[4] = tested on: BEAS-2B cells; assay: MTT cell viability, dose-response curves 24 h; assay type: cell-based
Experimental: as §1

[5] = tested on: SKOV-3 cells; assay: MTT cell viability, dose-response curves 24 h; assay type: cell-based, human; conditions: MTT, 24 h; for IC50: read-out: IC50 (half-maximal inhibitory concentration), SKOV-3
Experimental: as §1

[6] = tested on: ovarian cancer tumoral lesions; parameters: method as in PMID 32276584; conditions: 50 mg/kg, peritumoral route; cited from earlier work
[7] = Homo sapiens, Caco-2, value in brackets
[8] = Cricetulus griseus, CHO-K1, 24 h
[9] = Cricetulus griseus, CHO-K1, 24 h, value in brackets
[10] = Homo sapiens, OVCAR-3, value in brackets
[11] = Homo sapiens, BEAS-2B, MTT, read-out: IC50 (half-maximal inhibitory concentration), BEAS-2B
[12] = Homo sapiens, BEAS-2B, MTT, value in brackets, read-out: IC50 (half-maximal inhibitory concentration), BEAS-2B
[13] = Homo sapiens, SK-OV-3, value in brackets

| IC50 ([1]; Homo sapiens, Caco-2) [µg/mL] | IC50 [1, 7] [µM] | IC50 ([3]; Homo sapiens, OVCAR-3) [µg/mL] | IC50 [3, 10] [µM] | IC50 ([5]; Homo sapiens, SK-OV-3) [µg/mL] | IC50 [5, 13] [µM] | Compound | IC50 (half-maximal inhibitory concentration), CHO-K1 [2] [µg/mL] | IC50 (half-maximal inhibitory concentration), BEAS-2B ([4]; MTT) [µg/mL] | IC50 [2, 8] [µg/mL] | IC50 [2, 9] [µM] | IC50 [4, 11] [µg/mL] | IC50 [4, 12] [µM] | further results |
| --- | --- | --- | --- | --- | --- | --- | --- | --- | --- | --- | --- | --- | --- |
|  |  |  |  |  |  | myricitrin [Compound 6] | 94 | 160 |  |  |  |  | IC50 (half-maximal inhibitory concentration), CACO-2 [1]: > 200 µg/mL; IC50 ([1]; value in brackets): > 431 µM; IC50 ([2]; value in brackets): 202 µM; IC50 (half-maximal inhibitory concentration), OVCAR-3 [3]: 200 µg/mL; IC50 ([3]; value in brackets): 431 µM; IC50 ([4]; read-out: IC50 (half-maximal inhibitory concentration), BEAS-2B, MTT, value in brackets): 344 µM; IC50 (half-maximal inhibitory concentration), SKOV-3 [5]: 197 µg/mL; IC50 ([5]; value in brackets): 424 µM |
| 100 | 349 | 200 | 699 | 200 | 699 | O=c1c(O)c(-c2ccc(O)c(O)c2)oc2cc(O)ccc12 [Compound 16, fisetin] |  |  | 46 | 161 | 50 | 175 |  |
| 150 | 496 | 200 | 662 | > 200 | > 662 | O=c1c(O)c(-c2ccc(O)c(O)c2)oc2cc(O)cc(O)c12 [Compound 9, quercetin] |  |  | 127 | 420 | 189 | 625 |  |
| 62 | 195 | 94 | 295 | 166 | 522 | O=c1c(O)c(-c2cc(O)c(O)c(O)c2)oc2cc(O)cc(O)c12 [Compound 5, myricetin] | 33 (≈ 104 µM) | 64 (≈ 201 µM) |  | 104 |  | 201 | IC50 (half-maximal inhibitory concentration), CHO-K1 ([2]; listed as Myr): ~ 150 μg/mL; IC50 (half-maximal inhibitory concentration), BEAS-2B ([4]; MTT, listed as Myr): ~ 150 μg/mL; inhibition of tumoral lesions (of progression) [6]: 50% |
